What was measured:
[1] = target: T1, phosphorylated EGFR (pEGFR) (Homo sapiens, UniProt P00533); test: Detection of phosphorylated EGFR (pEGFR) in EGF-stimulated A431 cells; type: cell-based; details: A431 cells (10% FBS), 4 hours incubation, EGF 30 ng/mL 10 minutes, AlphaLISA
T1 construct: performed to measure phosphorylated EGFR levels using A431 cells (10% FBS); endogenous in cells; host or cells: A431
How it was run: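 A431 cells in 10% FBS were preincubated with compound for 4 h at 37 °C, then stimulated with EGF (30 ng/mL final) for 10 min. pEGFR in lysates was read by AlphaLISA. % inhibition was calculated against DMSO and staurosporine-treated controls, and IC50 came from a four-parameter curve fit.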

[2] = target: Ba/F3 ERBB2 A775_G776insYVMA (Homo sapiens, UniProt P04626, DUP772-775, cells depend on it); test: Cell viability assay, Ba/F3 ERBB2 A775_G776insYVMA; type: cell-based, mouse; details: Ba/F3 ERBB2 YVMA cells, cell viability, 72 hours, CellTiter Glo; Table B5; read-out: Ba/F3 ERBB2 YVMA, IC50
How it was run: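 IL-3-independent Ba/F3 lines stably expressing the human ERBB2 insertion mutants were seeded at 3000 cells/well and exposed to compounds for 72 h at 37 °C, 5% CO2. Viability was read as ATP by CellTiter-Glo luminescence. Curves were fitted by sigmoidal nonlinear regression.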

[3] = target: T2, phosphorylated ERBB2 (pERBB2) (Homo sapiens, UniProt P04626); test: Detection of phosphorylated ERBB2 (pERBB2) by ELISA in BT-474 cells; type: cell-based; details: four hours incubation
T2 construct: endogenous in cells; host or cells: BT-474
How it was run: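 BT-474 cells (2.0×10^4/well) treated 4 h at 37 °C, 5% CO2 with compounds in four-fold dilutions from 10 µM to 0.01 nM. Lysate pERBB2 measured by ELISA with TMB read at 450 nm; % relative activity scaled between no-cell wells and 0.1% DMSO-treated cells.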

Chain of Ba/F3 ERBB2 A775_G776insYVMA (P04626 with tags, fused parts or gaps DUP772-775): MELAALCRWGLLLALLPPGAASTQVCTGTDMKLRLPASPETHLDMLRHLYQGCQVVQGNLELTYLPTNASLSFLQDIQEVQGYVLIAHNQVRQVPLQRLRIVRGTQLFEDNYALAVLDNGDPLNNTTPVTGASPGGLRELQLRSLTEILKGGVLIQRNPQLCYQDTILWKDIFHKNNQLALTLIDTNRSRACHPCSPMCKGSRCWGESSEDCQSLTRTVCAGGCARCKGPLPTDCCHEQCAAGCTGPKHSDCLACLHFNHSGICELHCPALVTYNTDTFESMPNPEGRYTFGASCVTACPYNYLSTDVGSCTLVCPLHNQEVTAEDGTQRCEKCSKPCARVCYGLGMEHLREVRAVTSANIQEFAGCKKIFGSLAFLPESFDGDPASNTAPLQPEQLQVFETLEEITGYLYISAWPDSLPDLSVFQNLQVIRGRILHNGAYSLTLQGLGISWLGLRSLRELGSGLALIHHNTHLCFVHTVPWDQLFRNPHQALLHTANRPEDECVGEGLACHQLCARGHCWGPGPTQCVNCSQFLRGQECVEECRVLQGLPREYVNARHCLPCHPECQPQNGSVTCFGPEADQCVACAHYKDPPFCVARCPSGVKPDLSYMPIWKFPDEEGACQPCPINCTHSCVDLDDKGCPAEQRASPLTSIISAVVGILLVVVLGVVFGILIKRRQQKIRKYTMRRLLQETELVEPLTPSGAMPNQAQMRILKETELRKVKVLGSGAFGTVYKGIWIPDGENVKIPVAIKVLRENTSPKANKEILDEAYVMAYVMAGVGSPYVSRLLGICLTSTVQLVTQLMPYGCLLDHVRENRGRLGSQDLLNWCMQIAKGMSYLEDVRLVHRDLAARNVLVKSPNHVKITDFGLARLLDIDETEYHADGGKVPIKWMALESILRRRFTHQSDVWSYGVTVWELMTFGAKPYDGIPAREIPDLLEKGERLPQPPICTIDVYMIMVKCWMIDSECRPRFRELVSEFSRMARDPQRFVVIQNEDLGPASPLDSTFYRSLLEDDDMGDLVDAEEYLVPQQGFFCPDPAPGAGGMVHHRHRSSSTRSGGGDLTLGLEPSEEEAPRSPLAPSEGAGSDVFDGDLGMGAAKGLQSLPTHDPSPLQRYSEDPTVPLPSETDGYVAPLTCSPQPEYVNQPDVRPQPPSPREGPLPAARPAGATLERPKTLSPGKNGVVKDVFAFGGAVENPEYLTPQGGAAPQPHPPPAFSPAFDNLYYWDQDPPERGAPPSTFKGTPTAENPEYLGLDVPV
T2 sequence (P04626 23-1255): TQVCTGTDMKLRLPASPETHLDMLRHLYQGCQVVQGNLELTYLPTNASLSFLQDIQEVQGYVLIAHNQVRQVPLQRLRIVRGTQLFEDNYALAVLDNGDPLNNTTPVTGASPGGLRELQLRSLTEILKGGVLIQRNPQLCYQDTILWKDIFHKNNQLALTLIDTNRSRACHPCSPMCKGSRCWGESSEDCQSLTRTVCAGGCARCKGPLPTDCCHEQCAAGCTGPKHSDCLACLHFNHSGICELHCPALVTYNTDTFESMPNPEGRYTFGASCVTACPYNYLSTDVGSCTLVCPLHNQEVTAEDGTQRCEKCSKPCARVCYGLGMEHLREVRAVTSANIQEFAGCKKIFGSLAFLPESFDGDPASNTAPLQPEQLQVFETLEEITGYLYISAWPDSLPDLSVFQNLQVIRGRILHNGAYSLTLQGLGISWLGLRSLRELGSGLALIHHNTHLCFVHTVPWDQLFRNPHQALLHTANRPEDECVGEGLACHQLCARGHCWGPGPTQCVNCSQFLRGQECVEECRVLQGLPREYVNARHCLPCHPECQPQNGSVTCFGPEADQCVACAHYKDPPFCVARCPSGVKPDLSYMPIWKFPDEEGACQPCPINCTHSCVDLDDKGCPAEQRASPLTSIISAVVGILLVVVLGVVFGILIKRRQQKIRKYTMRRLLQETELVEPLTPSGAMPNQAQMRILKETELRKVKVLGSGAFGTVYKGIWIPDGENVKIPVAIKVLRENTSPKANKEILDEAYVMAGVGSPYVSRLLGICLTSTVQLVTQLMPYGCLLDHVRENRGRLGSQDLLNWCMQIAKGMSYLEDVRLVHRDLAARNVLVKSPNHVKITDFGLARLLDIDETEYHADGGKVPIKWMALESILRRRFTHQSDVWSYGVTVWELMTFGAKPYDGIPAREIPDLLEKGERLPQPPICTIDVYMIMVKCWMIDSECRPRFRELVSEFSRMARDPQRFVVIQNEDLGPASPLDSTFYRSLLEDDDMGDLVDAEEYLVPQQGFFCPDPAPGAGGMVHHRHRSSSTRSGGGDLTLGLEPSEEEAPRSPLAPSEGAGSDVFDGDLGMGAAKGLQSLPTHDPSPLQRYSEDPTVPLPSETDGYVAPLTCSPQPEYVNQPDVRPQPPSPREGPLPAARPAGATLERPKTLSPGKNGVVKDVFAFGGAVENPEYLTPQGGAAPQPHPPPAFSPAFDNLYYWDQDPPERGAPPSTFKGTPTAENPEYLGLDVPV
T1 sequence (P00533 25-1210): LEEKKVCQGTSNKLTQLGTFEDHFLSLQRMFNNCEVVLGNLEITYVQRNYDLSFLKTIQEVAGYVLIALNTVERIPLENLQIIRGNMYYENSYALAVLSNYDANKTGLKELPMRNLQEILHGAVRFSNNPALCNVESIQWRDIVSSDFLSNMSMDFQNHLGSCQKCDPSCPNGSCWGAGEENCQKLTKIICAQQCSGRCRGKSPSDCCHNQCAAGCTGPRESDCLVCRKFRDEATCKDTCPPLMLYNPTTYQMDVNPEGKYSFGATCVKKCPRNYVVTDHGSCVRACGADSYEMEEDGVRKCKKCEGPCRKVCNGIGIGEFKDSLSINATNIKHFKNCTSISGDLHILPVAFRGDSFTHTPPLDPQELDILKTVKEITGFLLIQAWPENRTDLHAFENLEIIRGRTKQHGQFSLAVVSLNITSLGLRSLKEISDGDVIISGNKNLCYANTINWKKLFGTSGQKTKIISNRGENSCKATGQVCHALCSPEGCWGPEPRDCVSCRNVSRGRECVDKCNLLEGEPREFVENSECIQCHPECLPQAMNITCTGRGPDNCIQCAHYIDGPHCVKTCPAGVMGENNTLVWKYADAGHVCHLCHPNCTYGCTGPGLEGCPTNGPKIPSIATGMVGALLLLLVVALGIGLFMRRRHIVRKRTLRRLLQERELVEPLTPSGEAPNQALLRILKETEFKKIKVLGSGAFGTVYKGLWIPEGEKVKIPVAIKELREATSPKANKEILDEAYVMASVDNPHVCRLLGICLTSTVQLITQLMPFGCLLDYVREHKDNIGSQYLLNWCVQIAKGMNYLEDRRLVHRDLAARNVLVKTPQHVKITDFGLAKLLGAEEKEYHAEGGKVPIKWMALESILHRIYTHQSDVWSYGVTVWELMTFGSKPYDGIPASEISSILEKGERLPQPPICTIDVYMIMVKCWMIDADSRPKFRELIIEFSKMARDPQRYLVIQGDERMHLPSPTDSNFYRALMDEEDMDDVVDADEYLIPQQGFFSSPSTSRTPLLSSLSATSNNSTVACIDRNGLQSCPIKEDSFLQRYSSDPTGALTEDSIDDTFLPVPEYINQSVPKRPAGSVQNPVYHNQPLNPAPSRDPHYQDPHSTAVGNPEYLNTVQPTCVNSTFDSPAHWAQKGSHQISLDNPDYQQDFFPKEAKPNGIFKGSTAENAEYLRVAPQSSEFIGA

Structure (SMILES) | IC50 [1] | IC50 [3] | GI50 [2]
Cc1cc(Nc2ncnc3cnc(N4CC/C(=C\CN(C)C)C4=O)cc23)ccc1Oc1ccn2nnnc2c1 [Compound 107, (3E)-3-[2-(dimethylamino)ethylidene]-1-{4-[(3-methyl-4-{[1,2,3,4]tetrazolo[1,5-a]pyridin-7-yloxy}phenyl)amino]pyrido[3,4-d]pyrimidin-6-yl}pyrrolidin-2-one] | > 10000 nM | 21.6 nM | 81.3 nM
Cc1cc(Nc2ncnc3ccc(N4CC/C(=C\CN(C)C)C4=O)nc23)ccc1Oc1ccn2nnnc2c1 [Compound 108, (3E)-3-[2-(dimethylamino)ethylidene]-1-{4-[(3-methyl-4-{[1,2,3,4]tetrazolo[1,5-a]pyridin-7-yloxy}phenyl)amino]pyrido[3,2-d]pyrimidin-6-yl}pyrrolidin-2-one] | 3410 nM | 13.2 nM | 11.1 nM
Cc1cc(Nc2ncnc3ccc(N4CC/C(=C\[C@H](C)N(C)C)C4=O)nc23)ccc1Oc1ccn2ncnc2c1 [Compound 113, (S,E)-1-(4-((4-([1,2,4]triazolo[1,5-a]pyridin-7-yloxy)-3-methylphenyl)amino)pyrido[3,2-d]pyrimidin-6-yl)-3-(2-(dimethylamino)propylidene)pyrrolidin-2-one] | > 10000 nM | 327 nM | > 500 nM
Cc1cc(Nc2ncnc3ccc(N4CC/C(=C\[C@@H](C)N(C)C)C4=O)nc23)ccc1Oc1ccn2ncnc2c1 [Compound 114, (R,E)-1-(4-((4-([1,2,4]triazolo[1,5-a]pyridin-7-yloxy)-3-methylphenyl)amino)pyrido[3,2-d]pyrimidin-6-yl)-3-(2-(dimethylamino)propylidene)pyrrolidin-2-one] | > 10000 nM | 31.1 nM | 24.3 nM
[2H]C([2H])([2H])n1nnc2cc(Oc3ccc(Nc4ncnc5ccc(N6CC/C(=C\CN(C)C)C6=O)nc45)cc3C)ccc21 [Compound 117, (E)-3-(2-(dimethylamino)ethylidene)-1-(4-((3-methyl-4-((1-(methyl-d3)-1H-benzo[d][1,2,3]triazol-5-yl)oxy)phenyl)amino)pyrido[3,2-d]pyrimidin-6-yl)pyrrolidin-2-one] | > 10000 nM | 19.2 nM | 2 nM
Cc1cc(Nc2c(C#N)cnc3ccc(N4CC/C(=C\CN(C)C)C4=O)nc23)ccc1Oc1ccc2c(c1)ncn2C [Compound 124, 6-[(3E)-3-[2-(dimethylamino)ethylidene]-2-oxopyrrolidin-1-yl]-4-({3-methyl-4-[(1-methyl-1,3-benzodiazol-5-yl)oxy]phenyl}amino)-1,5-naphthyridine-3-carbonitrile] | > 10000 nM | 163 nM | 34.2 nM
CN(C)C/C=C1\CCN(c2cc3c(Nc4ccc(Oc5ccc6c(c5)ncn6C)c(F)c4)ncnc3cn2)C1=O [Compound 128, (3E)-3-[2-(dimethylamino)ethylidene]-1-[4-({3-fluoro-4-[(1-methyl-1,3-benzodiazol-5-yl)oxy]phenyl}amino)pyrido[3,4-d]pyrimidin-6-yl]pyrrolidin-2-one] | > 10000 nM | 21.4 nM | 7.9 nM
Cc1cc(Nc2ncnc3cnc(N4CC/C(=C\C5CN(C)C5)C4=O)cc23)c(F)cc1Oc1ccn2ncnc2c1 [Compound 138, (3E)-1-{4-[(2-fluoro-5-methyl-4-{[1,2,4]triazolo[1,5-a]pyridin-7-yloxy}phenyl)amino]pyrido[3,4-d]pyrimidin-6-yl}-3-[(1-methylazetidin-3-yl)methylidene]pyrrolidin-2-one] | > 10000 nM | 16.8 nM | 99.6 nM
Cc1cc(Nc2ncnc3ccc(N4CC/C(=C\C5CN(C)C5)C4=O)nc23)ccc1Oc1ccn2ncnc2c1 [Compound 139, (3E)-1-{4-[(3-methyl-4-{[1,2,4]triazolo[1,5-a]pyridin-7-yloxy}phenyl)amino]pyrido[3,2-d]pyrimidin-6-yl}-3-[(1-methylazetidin-3-yl)methylidene]pyrrolidin-2-one] | > 10000 nM | 14.3 nM | 15.7 nM
CN(C)C/C=C1\CCN(c2cc3c(Nc4cc(F)c(Oc5ccn6ncnc6c5)cc4F)ncnc3cn2)C1=O [Compound 140, (3E)-1-{4-[(2,5-difluoro-4-{[1,2,4]triazolo[1,5-a]pyridin-7-yloxy}phenyl)amino]pyrido[3,4-d]pyrimidin-6-yl}-3-[2-(dimethylamino)ethylidene]pyrrolidin-2-one] | > 10000 nM | 20.5 nM | 78.1 nM
CN(C)C/C=C1\CCN(c2ccc3ncnc(Nc4cc(F)c(Oc5ccn6ncnc6c5)cc4F)c3n2)C1=O [Compound 141, (E)-1-(4-((4-([1,2,4]triazolo[1,5-a]pyridin-7-yloxy)-2,5-difluorophenyl)amino)pyrido[3,2-d]pyrimidin-6-yl)-3-(2-(dimethylamino)ethylidene)pyrrolidin-2-one] | > 10000 nM | 23.8 nM | 28.5 nM

These reach a lower IC50 [1]. Values come first.

IC50 [1] | IC50 [3] | Structure (SMILES) | GI50 [2]
1690 nM | 28.2 nM | [2H]C([2H])([2H])N(C/C=C1\CCN(c2ccc3ncnc(Nc4ccc(Oc5ccc6c(c5)ncn6C([2H])([2H])[2H])c(C)c4)c3n2)C1=O)C([2H])([2H])[2H] [Compound 106, (E)-3-(2-(bis(methyl-d3)amino)ethylidene)-1-(4-((3-methyl-4-((1-(methyl-d3)-1H-benzo[d]imidazol-5-yl)oxy)phenyl)amino)pyrido[3,2-d]pyrimidin-6-yl)pyrrolidin-2-one] | 2.99 nM
177 nM | 10.3 nM | Cc1cc(Nc2ncnc3ccc(N4CC/C(=C\CN(C)C)C4=O)nc23)ccc1Oc1ccc2[nH]cnc2c1 [Compound 118, (3E)-1-(4-{[4-(1H-1,3-benzodiazol-5-yloxy)-3-methylphenyl]amino}pyrido[3,2-d]pyrimidin-6-yl)-3-[2-(dimethylamino)ethylidene]pyrrolidin-2-one] | 1.55 nM
521 nM | 15.4 nM | [2H]C([2H])([2H])n1cnc2cc(Oc3ccc(Nc4ncnc5ccc(N6CC/C(=C\CN(C)C)C6=O)nc45)cc3C)ccc21 [Compound 119, (E)-3-(2-(dimethylamino)ethylidene)-1-(4-((3-methyl-4-((1-(methyl-d3)-1H-benzo[d]imidazol-5-yl)oxy)phenyl)amino)pyrido[3,2-d]pyrimidin-6-yl)pyrrolidin-2-one] | 1.18 nM
1140 nM | 42.8 nM | CN(C)C/C=C1\CCN(c2cc3c(Nc4ccc(Oc5cccnc5)c(F)c4)ncnc3cn2)C1=O [Compound 125, (3E)-3-[2-(dimethylamino)ethylidene]-1-(4-{[3-fluoro-4-(pyridin-3-yloxy)phenyl]amino}pyrido[3,4-d]pyrimidin-6-yl)pyrrolidin-2-one] | 56 nM
1110 nM | 99.1 nM | CN(C)C/C=C1\CCN(c2ccc3ncnc(Nc4ccc(Oc5cccnc5)c(F)c4)c3n2)C1=O [Compound 126, (3E)-3-[2-(dimethylamino)ethylidene]-1-(4-{[3-fluoro-4-(pyridin-3-yloxy)phenyl]amino}pyrido[3,2-d]pyrimidin-6-yl)pyrrolidin-2-one] | 34 nM
1200 nM | 27 nM | C=C1CCCN(c2cc3c(Nc4ccc(Oc5ccc6c(c5)ncn6C)c(C)c4)ncnc3cn2)C1=O [Compound 127, 1-[4-({3-methyl-4-[(1-methyl-1,3-benzodiazol-5-yl)oxy]phenyl}amino)pyrido[3,4-d]pyrimidin-6-yl]-3-methylidenepiperidin-2-one] | 24.3 nM
2320 nM | 11.9 nM | CN(C)C/C=C1\CCN(c2cc3c(Nc4ccc(Oc5ccn6ncnc6c5)c(F)c4)ncnc3cn2)C1=O [Compound 129, (3E)-3-[2-(dimethylamino)ethylidene]-1-{4-[(3-fluoro-4-{[1,2,4]triazolo[1,5-a]pyridin-7-yloxy}phenyl)amino]pyrido[3,4-d]pyrimidin-6-yl}pyrrolidin-2-one] | 19.3 nM
187 nM | 40.6 nM | Cc1cc(Nc2ncnc3ccc(N4CC/C(=C\CN(C)C)C4=O)nc23)ccc1Oc1cncc(F)c1 [Compound 130, (3E)-3-[2-(dimethylamino)ethylidene]-1-[4-({4-[(5-fluoropyridin-3-yl)oxy]-3-methylphenyl}amino)pyrido[3,2-d]pyrimidin-6-yl]pyrrolidin-2-one] | 17.8 nM
1140 nM | 10.9 nM | CN(C)C/C=C1\CCN(c2cc3c(Nc4cc(Cl)c(Oc5ccn6ncnc6c5)cc4F)ncnc3cn2)C1=O [Compound 133, (E)-1-(4-((4-([1,2,4]triazolo[1,5-a]pyridin-7-yloxy)-5-chloro-2-fluorophenyl)amino)pyrido[3,4-d]pyrimidin-6-yl)-3-(2-(dimethylamino)ethylidene)pyrrolidin-2-one] | 16.9 nM
543 nM | 15.4 nM | Cc1cc(Nc2ncnc3ccc(N4C(=O)/C(=C\CN(C)C)C5CC54)nc23)ccc1Oc1ccn2ncnc2c1 (stereo not drawn) [Compound 142, (4Z)-4-[2-(dimethylamino)ethylidene]-2-{4-[(3-methyl-4-{[1,2,4]triazolo[1,5-a]pyridin-7-yloxy}phenyl)amino]pyrido[3,2-d]pyrimidin-6-yl}-2-azabicyclo[3.1.0]hexan-3-one] | 5.8 nM

Source: patent US20240116921A1, “LACTAM (HETERO)[…] DERIVATIVES AS INHIBITORS OF ERBB2” (EnLiven Therapeutics, Inc., priority 2020, published 2024)
